Source: patent US9290764B2, “RNAi for the control of insects and arachnids” (Devgen NV, priority 2005, dated 2016)

Tested on: German cockroach, Blattella germanica
Assay: Cockroach laboratory trial of Bg001 dsRNA and Bg001 concatemer 2 (mortality and moulting to adult)
Type: in vivo
Settings: for number of cockroaches successfully moulting to the adult stage, as a percentage of live insects (means±standard errors, n=4): pellets 1% w/w
Procedure: Table 3: Effect of dsRNA treatments on the number of cockroaches successfully moulting to the adult stage, as a percentage of live insects (means±standard errors, n=4)
FIG. 2: Mortality of B. germanica on artificial pellet diet. The concentration of dsRNA (Bg001, having the sequence as represented as SEQ ID NO 9, and Bg001 concatemer 2, having the sequence as represented as SEQ ID NO 68) in the pellets was 1% w/w. In this experiment, hexaflumuron (1% w/w) was tested as a positive control and solvent as a negative control.
Stock solutions of 1-10 μg/μl dsRNA in distilled water were prepared. Each dsRNA solution was diluted to the appropriate concentration and mixed with finely ground laboratory diet (Rat and mouse standard diet, B&K Universal Ltd, Hull, UK), which was previously heat treated in order to inactivate any enzymes. The mixture or formulation was formed into small pellets of equal weight (0.3 g) to achieve an end concentration of 0.1% to 2% w/w dsRNA and dried overnight at room temperature.
Newly hatched nymphs from the German cockroach, B. germanica were housed per 10 in plastic lidded containers (29±2° C., minimum 40% relative humidity, with a 12:12 light:dark photoperiod). Animals were starved 24 hours prior to exposure to the pellets. The cockroaches were assessed as live, moribund or dead twice a week until adulthood. The pellet was replaced with freshly prepared pellet once a week. dsRNA containing pellets, formulations, were compared with a negative control (solvent) and a positive control (1 or 2% imidacloprid, commonly used in commercially available cockroach baits).
Concatemers were designed for each target gene. Concatemers are synthetic tandem repeats of 50 to 100 bp dsfragments. In the present example, concatemers were designed by selecting the best possible fragments in regions with homology in protein family as well as at nucleotide level, in regions containing the best predicted siRNAs and in regions with between 40 and 60% GC content, preferably about 50% GC content, if possible.
For Bg001 two concatemers were designed consisting of a five times repeat of a 50 bp fragment, ie represented by SEQ ID NO 65 and 66, resulting in Bg001 concatemer 1 and Bg001 concatemer 2, herein represented respectively as SEQ ID NO 67 and SEQ ID NO 68, and one concatemer was designed consisting of a three times repeat of a 100 bp repeat, ie represented by SEQ ID NO 69, resulting in Bg001 concatemer 3, herein represented as SEQ ID NO 70. XbaI and SmaI flanking sites were added for cloning in a vector to produce dsRNA. These dsRNA constructs comprising the concatemers were tested in the cockroach laboratory trials.
For example at day 48, from the surviving cockroaches treated with Bg001 only 33.3 moulted to the adult stage whereas none of the cockroaches treated with Bg001 concatemer 2 did within this time as shown in Table 3.

O=C(NC(=O)c1c(F)cccc1F)Nc1cc(Cl)c(OC(F)(F)C(F)F)c(Cl)c1 [Positive control, hexaflumuron]
number of cockroaches successfully moulting to the adult stage, as a percentage of live insects (means±standard errors, n=4) (Day 38): 0.0 (±0.0) % | number of cockroaches successfully moulting to the adult stage, as a percentage of live insects (means±standard errors, n=4) (Day 41): 0.0 (±0.0) % | number of cockroaches successfully moulting to the adult stage, as a percentage of live insects (means±standard errors, n=4) (Day 45): 0.0 (±0.0) % | number of cockroaches successfully moulting to the adult stage, as a percentage of live insects (means±standard errors, n=4) (Day 48): 0.0 (±0.0) % | number of cockroaches successfully moulting to the adult stage, as a percentage of live insects (means±standard errors, n=4) (Day 52): 0.0 (±0.0) %

B1: Bg001 concatemer 2: dsRNA concatemer, five times repeat of a 50 bp Bg001 fragment (SEQ ID NO 66) (nucleic acid)
DNA: CTTGGGTCGTGTTGGAACTGTAGTTAATCGAGAACGTCATCCTGGTTCCTCTTGGGTCGTGTTGGAACTGTAGTTAATCGAGAACGTCATCCTGGTTCCTCTTGGGTCGTGTTGGAACTGTAGTTAATCGAGAACGTCATCCTGGTTCCTCTTGGGTCGTGTTGGAACTGTAGTTAATCGAGAACGTCATCCTGGTTCCTCTTGGGTCGTGTTGGAACTGTAGTTAATCGAGAACGTCATCCTGGTTCCT
modifications: Concatemer
number of cockroaches successfully moulting to the adult stage, as a percentage of live insects (means±standard errors, n=4) (Day 38): 0.0 (±0.0) % | number of cockroaches successfully moulting to the adult stage, as a percentage of live insects (means±standard errors, n=4) (Day 41): 0.0 (±0.0) % | number of cockroaches successfully moulting to the adult stage, as a percentage of live insects (means±standard errors, n=4) (Day 45): 0.0 (±0.0) % | number of cockroaches successfully moulting to the adult stage, as a percentage of live insects (means±standard errors, n=4) (Day 52): 0.0 (±0.0) % | mortality compared to the negative control (solvent) (artificial pellet diet, dsRNA 1% w/w (FIG. 2)): significant higher
